Assay results published in PubChem BioAssay AID1963867 (Molecular Pharmacology Branch, DTP, NCI, 2024).

Test system: KRAS-mutant PDC tumor spheroid with HUVEC/MSC, viability
Assay: Anticancer human tumor 327498-153-R-J2-PDC patient-derived uterine carcinosarcoma cell line growth inhibition [KRAS2]
Conditions: for IC50: curve of first compound; for viability, T/C: stronger effect = lower value; active means viability on the fitted dose curve at most 10% of control; inactive means the rest
In short: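 Combination screen of spheroid viability in tumor-cell co-cultures with endothelial (HUVEC) and mesenchymal stem cell stroma. Each agent was tested in half-log dilutions, topping at clinical Cmax or at 10 microM without a known Cmax.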

[1] = second compound 0.1 µM, first compound 0.0316 µM
[2] = second compound 0.316 µM, first compound 0.0316 µM
[3] = second compound 1 µM, first compound 0.0316 µM
[4] = second compound 3.16 µM, first compound 0.0316 µM
[5] = second compound 10 µM, first compound 0.0316 µM
[6] = second compound 0.1 µM, first compound 0.1 µM
[7] = second compound 0.1 µM, first compound 0.316 µM
[8] = second compound 0.1 µM, first compound 1 µM
[9] = second compound 0.1 µM, first compound 3.16 µM
[10] = second compound 0.1 µM, first compound 10 µM
[11] = second compound 0.316 µM, first compound 0.1 µM
[12] = second compound 0.316 µM, first compound 0.316 µM
[13] = second compound 0.316 µM, first compound 1 µM
[14] = second compound 0.316 µM, first compound 3.16 µM
[15] = second compound 0.316 µM, first compound 10 µM
[16] = second compound 1 µM, first compound 0.1 µM
[17] = second compound 1 µM, first compound 0.316 µM
[18] = second compound 1 µM, first compound 1 µM
[19] = second compound 1 µM, first compound 3.16 µM
[20] = second compound 1 µM, first compound 10 µM
[21] = second compound 3.16 µM, first compound 0.1 µM
[22] = second compound 3.16 µM, first compound 0.316 µM
[23] = second compound 3.16 µM, first compound 1 µM
[24] = second compound 3.16 µM, first compound 3.16 µM
[25] = second compound 3.16 µM, first compound 10 µM
[26] = second compound 10 µM, first compound 0.1 µM
[27] = second compound 10 µM, first compound 0.316 µM
[28] = second compound 10 µM, first compound 1 µM
[29] = second compound 10 µM, first compound 3.16 µM
[30] = second compound 10 µM, first compound 10 µM
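Further: spheroids exposed to agents for seven days before reading.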
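Wherever viability, T/C is given: 100% = DMSO vehicle wells so lower means fewer viable cells.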

CC(=O)Nc1cccc(-n2c(=O)n(C3CC3)c(=O)c3c(Nc4ccc(I)cc4F)n(C)c(=O)c(C)c32)c1 + CNCc1ccccc1-c1csc(C(C)Nc2nc(C)nc3cc(OC)c(OC)cc23)c1
active: viability, T/C (second compound 3.16 µM, first compound 0.00316 µM) 0.12% | viability, T/C (second compound 3.16 µM, first compound 0.01 µM) 5.68% | viability, T/C [4] 2.54% | viability, T/C (second compound 10 µM, first compound 0.0001 µM) 0.18% | viability, T/C (second compound 10 µM, first compound 0.000316 µM) 0.87% | viability, T/C (second compound 10 µM, first compound 0.001 µM) 0.14% | viability, T/C (second compound 10 µM, first compound 0.00316 µM) 0.14% | viability, T/C (second compound 10 µM, first compound 0.01 µM) 0.15% | viability, T/C [5] 0.21%
2.35 nM: IC50 (second compound 1 µM)
4.34 nM: IC50 (second compound 0.1 µM)
< 0.1 nM: IC50 (second compound 3.16 µM) | IC50 (second compound 10 µM)
4.68 nM: IC50 (second compound 0.316 µM)
inactive: viability, T/C (second compound 0.1 µM, first compound 0.0001 µM) 84% | viability, T/C (second compound 0.1 µM, first compound 0.000316 µM) 67% | viability, T/C (second compound 0.1 µM, first compound 0.001 µM) 61.8% | viability, T/C (second compound 0.1 µM, first compound 0.00316 µM) 56.1% | viability, T/C (second compound 0.1 µM, first compound 0.01 µM) 43.9% | viability, T/C [1] 29.6% | viability, T/C (second compound 0.316 µM, first compound 0.0001 µM) 71.6% | viability, T/C (second compound 0.316 µM, first compound 0.000316 µM) 67.8% | viability, T/C (second compound 0.316 µM, first compound 0.001 µM) 58.4% | viability, T/C (second compound 0.316 µM, first compound 0.00316 µM) 51.3% | viability, T/C (second compound 0.316 µM, first compound 0.01 µM) 48.5% | viability, T/C [2] 27% | viability, T/C (second compound 1 µM, first compound 0.0001 µM) 70.9% | viability, T/C (second compound 1 µM, first compound 0.000316 µM) 60.8% | viability, T/C (second compound 1 µM, first compound 0.001 µM) 53.9% | viability, T/C (second compound 1 µM, first compound 0.00316 µM) 49.3% | viability, T/C (second compound 1 µM, first compound 0.01 µM) 41.9% | viability, T/C [3] 23.6% | viability, T/C (second compound 3.16 µM, first compound 0.0001 µM) 37.2% | viability, T/C (second compound 3.16 µM, first compound 0.000316 µM) 38.7% | viability, T/C (second compound 3.16 µM, first compound 0.001 µM) 22.7%

COC(=O)c1ccc2c(C(=Nc3ccc(N(C)C(=O)CN4CCN(C)CC4)cc3)c3ccccc3)c(O)[nH]c2c1 + CNCc1ccccc1-c1csc(C(C)Nc2nc(C)nc3cc(OC)c(OC)cc23)c1
inactive: viability, T/C [1] 73.5% | viability, T/C [6] 69.9% | viability, T/C [7] 58.6% | viability, T/C [8] 38.7% | viability, T/C [9] 10.9% | viability, T/C [2] 62.9% | viability, T/C [11] 61.4% | viability, T/C [12] 48.8% | viability, T/C [13] 22.6% | viability, T/C [3] 60.9% | viability, T/C [16] 53% | viability, T/C [17] 41.5% | viability, T/C [18] 18.7%
active: viability, T/C [10] 8.59% | viability, T/C [14] 0.98% | viability, T/C [15] 1.62% | viability, T/C [19] 0.06% | viability, T/C [20] 0.11% | viability, T/C [4] 0.1% | viability, T/C [21] 0.13% | viability, T/C [22] 0.08% | viability, T/C [23] 0.15% | viability, T/C [24] 0.04% | viability, T/C [25] 0.11% | viability, T/C [5] 0.43% | viability, T/C [26] 0.37% | viability, T/C [27] 0.36% | viability, T/C [28] 0.1% | viability, T/C [29] 1.07% | viability, T/C [30] 0.16%
< 31.6 nM: IC50 (second compound 3.16 µM) | IC50 (second compound 10 µM)
308 nM: IC50 (second compound 0.316 µM)
519 nM: IC50 (second compound 0.1 µM)
153 nM: IC50 (second compound 1 µM)

COc1cc(Nc2ncc3c(n2)-c2ccc(Cl)cc2C(c2c(F)cccc2OC)=NC3)ccc1C(=O)O + CNCc1ccccc1-c1csc(C(C)Nc2nc(C)nc3cc(OC)c(OC)cc23)c1
< 31.6 nM: IC50 (second compound 0.1 µM) | IC50 (second compound 0.316 µM) | IC50 (second compound 1 µM) | IC50 (second compound 3.16 µM) | IC50 (second compound 10 µM)
active: viability, T/C [4] 0.1% | viability, T/C [21] 0.06% | viability, T/C [22] 0.05% | viability, T/C [23] 0.05% | viability, T/C [24] 0.06% | viability, T/C [25] 0.15% | viability, T/C [5] 0.14% | viability, T/C [26] 0.13% | viability, T/C [27] 0.14% | viability, T/C [28] 0.13% | viability, T/C [29] 0.63% | viability, T/C [30] 0.22%
inactive: viability, T/C [1] 16.1% | viability, T/C [6] 10.8% | viability, T/C [7] 9.69% | viability, T/C [8] 10.2% | viability, T/C [9] 12% | viability, T/C [10] 12.3% | viability, T/C [2] 15.6% | viability, T/C [11] 11.1% | viability, T/C [12] 10.5% | viability, T/C [13] 10.8% | viability, T/C [14] 12.9% | viability, T/C [15] 12.8% | viability, T/C [3] 14.7% | viability, T/C [16] 10.7% | viability, T/C [17] 8.64% | viability, T/C [18] 8.26% | viability, T/C [19] 11.9% | viability, T/C [20] 11.6%

COc1cc2nccc(Oc3ccc(NC(=O)C4(C(=O)Nc5ccc(F)cc5)CC4)cc3)c2cc1OC + CNCc1ccccc1-c1csc(C(C)Nc2nc(C)nc3cc(OC)c(OC)cc23)c1
1910 nM: IC50 (second compound 0.316 µM)
2040 nM: IC50 (second compound 0.1 µM)
1670 nM: IC50 (second compound 1 µM)
inactive: viability, T/C [1] 79.7% | viability, T/C [6] 80.7% | viability, T/C [7] 88.2% | viability, T/C [8] 85.9% | viability, T/C [9] 29.3% | viability, T/C [2] 83% | viability, T/C [11] 72.5% | viability, T/C [12] 77.7% | viability, T/C [13] 73.3% | viability, T/C [14] 31.8% | viability, T/C [3] 72.8% | viability, T/C [16] 73.5% | viability, T/C [17] 69.7% | viability, T/C [18] 69.5% | viability, T/C [19] 25.8%
< 31.6 nM: IC50 (second compound 3.16 µM) | IC50 (second compound 10 µM)
active: viability, T/C [10] 0.95% | viability, T/C [15] 0.58% | viability, T/C [20] 0.3% | viability, T/C [4] 0.12% | viability, T/C [21] 0.17% | viability, T/C [22] 1.01% | viability, T/C [23] 0.1% | viability, T/C [24] 0.06% | viability, T/C [25] 0.15% | viability, T/C [5] 0.12% | viability, T/C [26] 0.11% | viability, T/C [27] 0.34% | viability, T/C [28] 0.34% | viability, T/C [29] 0.71% | viability, T/C [30] 0.81%
